Reference: patent US20260265247A1, “MULTI-KINASE INHIBITORS, COMPOSITIONS THEREOF, AND METHODS OF USING THE SAME” (BIOFRONT LTD, priority 2022, published 2026)

How the values were obtained:
Assay type in all cases: biochemical
[1] = biological target: T1, HPK1 (Homo sapiens, UniProt Q92918); experiment: HPK1 Enzymatic Assay (ADP-Glo); settings: enzyme inhibition; MBP substrate, ATP 20 μM mixture
T1 construct: purchased Signal Chem M23-11G-10
T1 sequence (Q92918 1-346 limits assumed): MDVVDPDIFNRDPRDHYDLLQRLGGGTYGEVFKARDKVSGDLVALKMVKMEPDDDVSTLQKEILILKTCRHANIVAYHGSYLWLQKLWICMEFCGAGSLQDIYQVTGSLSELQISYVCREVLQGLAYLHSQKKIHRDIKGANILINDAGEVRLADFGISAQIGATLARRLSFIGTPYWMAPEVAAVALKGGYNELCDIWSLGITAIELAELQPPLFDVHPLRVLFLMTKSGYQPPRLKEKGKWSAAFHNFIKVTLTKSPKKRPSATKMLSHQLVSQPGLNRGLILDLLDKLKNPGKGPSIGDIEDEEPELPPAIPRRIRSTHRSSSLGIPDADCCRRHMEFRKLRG
Method: The compound was dissolved in 100% DMSO at the concentration of 10 mM. The HPK1 protein was purchased from Signal Chem (M23-11G-10). 2.5 μL per well of 2× HPK1 protein was added to assay plate containing the test compound, centrifuged at 1500 rpm for 1 minute, and then incubated at 25° C. for 60 minutes. MBP protein was purchased from Signal Chem (M42-51N) and ATP was purchased from Promega (V9102). The two were added 2.5 μL per well mixture of 2× MBP (0.2 ug/ul) and ATP (20 μM), centrifuged at 1500 rpm for 1 minute, then incubated at 25° C. for 60 minutes. Then added 5 μL of ADP-Glo from Promega (V9102) to the assay plate and depleted the unconsumed ATP for 60 minutes. Then centrifuged at 1500 rpm for 1 minute and incubated at 25° C. for 60 minutes. Finally, 10 μL of the kinase assay reagent from Promega (V9102) was added to the assay plate to convert ADP to ATP, centrifuged at 1500 rpm for 1 minute, incubate at 25° C. for 40 minutes. After 40 minutes incubation, the fluorescence was determined. Based on the results, the IC50 value of the compound was calculated.

[2] = biological target: T2, FLT3-ITD (Homo sapiens, UniProt P36888); experiment: FLT3-ITD Enzymatic Assay; settings: enzyme inhibition; peptide 2 3 μM, ATP 97.2 μM
T2 sequence (P36888 1-993): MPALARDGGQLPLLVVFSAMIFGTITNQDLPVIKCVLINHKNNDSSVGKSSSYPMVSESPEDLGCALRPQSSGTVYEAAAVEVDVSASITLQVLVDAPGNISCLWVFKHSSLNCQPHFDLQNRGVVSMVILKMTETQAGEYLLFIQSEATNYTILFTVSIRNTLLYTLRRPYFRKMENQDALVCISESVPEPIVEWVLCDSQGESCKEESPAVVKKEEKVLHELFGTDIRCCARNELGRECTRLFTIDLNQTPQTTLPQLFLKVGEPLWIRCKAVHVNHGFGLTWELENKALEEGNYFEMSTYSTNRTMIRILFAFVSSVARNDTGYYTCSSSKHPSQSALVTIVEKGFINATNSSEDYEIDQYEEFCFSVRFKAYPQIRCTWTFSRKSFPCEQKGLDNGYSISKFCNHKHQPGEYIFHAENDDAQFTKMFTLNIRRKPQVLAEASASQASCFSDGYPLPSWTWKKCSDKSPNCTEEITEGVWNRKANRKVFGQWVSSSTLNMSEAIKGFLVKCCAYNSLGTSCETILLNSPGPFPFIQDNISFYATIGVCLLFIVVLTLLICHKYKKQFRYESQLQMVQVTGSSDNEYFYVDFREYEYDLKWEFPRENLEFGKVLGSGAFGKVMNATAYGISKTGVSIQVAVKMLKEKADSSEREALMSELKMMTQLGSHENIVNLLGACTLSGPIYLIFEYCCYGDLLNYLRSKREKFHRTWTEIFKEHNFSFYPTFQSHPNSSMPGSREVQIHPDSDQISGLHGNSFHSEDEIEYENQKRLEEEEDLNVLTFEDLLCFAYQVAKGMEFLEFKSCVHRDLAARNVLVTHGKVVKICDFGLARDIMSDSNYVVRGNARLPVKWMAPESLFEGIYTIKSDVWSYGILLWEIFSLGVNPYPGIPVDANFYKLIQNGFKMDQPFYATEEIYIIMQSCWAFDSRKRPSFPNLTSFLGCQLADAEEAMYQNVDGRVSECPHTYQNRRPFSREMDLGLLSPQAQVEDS
Method: The compound was dissolved in 100% DMSO at the concentration of 10 mM. The FLT3-ITD protein was purchased from Invitrogen (PV6191). 10 μL per well of 2.5× FLT3-ITD protein was added to assay plate containing the test compound, centrifuged at 1000 rpm for 1 minute, and then incubated at 25° C. for 10 minutes. Peptide 2 was purchased from GL Biochem (112394) and ATP was purchased from Promega (V9102). The two were added 15 μL per well mixture of 1.67× peptide 2 (final conc. is 3 μM) and ATP (final conc. is 97.2 μM), centrifuged at 1000 rpm for 1 minute, then incubated at 25° C. for 40 minutes. Then added 30 μL of stop buffer (100 mM HEPES pH7.5, 0.015% Brij-35, 0.2% Coating Reagent 3, 50 mM EDTA) to the assay plate and centrifuged at 1000 rpm for 1 minute. the product was determined. Based on the results, the IC50 value of the compound was calculated.

[3] = biological target: T3, Aurora A (Homo sapiens, UniProt O14965); experiment: Aurora A Enzymatic Assay; settings: enzyme inhibition; peptide 21 3 μM, ATP 14.58 μM
T3 construct: purchased Carna 05-101
T3 sequence (O14965 1-403): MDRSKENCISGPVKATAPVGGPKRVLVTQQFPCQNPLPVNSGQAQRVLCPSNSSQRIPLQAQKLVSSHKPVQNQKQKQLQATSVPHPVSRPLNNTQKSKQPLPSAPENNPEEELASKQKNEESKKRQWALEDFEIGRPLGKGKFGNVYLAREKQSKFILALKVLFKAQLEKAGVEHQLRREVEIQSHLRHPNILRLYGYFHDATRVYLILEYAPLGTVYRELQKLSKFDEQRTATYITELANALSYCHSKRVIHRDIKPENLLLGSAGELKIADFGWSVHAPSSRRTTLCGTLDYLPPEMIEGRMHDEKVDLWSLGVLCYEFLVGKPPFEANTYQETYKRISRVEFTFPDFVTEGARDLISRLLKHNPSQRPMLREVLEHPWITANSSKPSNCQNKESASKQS
Method: The compound was dissolved in 100% DMSO at the concentration of 10 mM. The Aurora A protein was purchased from Carna (05-101). 10 μL per well of 2.5× Aurora A protein was added to assay plate containing the test compound, centrifuged at 1000 rpm for 1 minute, and then incubated at 25° C. for 10 minutes. Peptide 21 was purchased from GL Biochem (116370) and ATP was purchased from Promega (V9102). The two were added 15 μL per well mixture of 1.67× peptide 21 (final conc. is 3 μM) and ATP (final conc. is 14.58 μM), centrifuged at 1000 rpm for 1 minute, then incubated at 25° C. for 40 minutes. Then added 30 μL of stop buffer (100 mM HEPES pH7.5, 0.015% Brij-35, 0.2% Coating Reagent 3, 50 mM EDTA) to the assay plate and centrifuged at 1000 rpm for 1 minute. the product was determined. Based on the results, the IC50 value of the compound was calculated.

Row | SMILES | IC50 [1] [nM] | IC50 [2] [nM] | IC50 [3] [nM]
1 | O=C1NCCN1c1cccc(-c2cnc3[nH]cc(C4CC4)c3c2Cl)c1 [Compound 4] | 27.6 | 14.6 | 22.9
2 | CS(=O)(=O)c1ccc(-c2cnc3[nH]cc(C4CC4)c3c2Cl)cc1N1CCCNC1=O [Compound 14, 1-(5-(4-chloro-3-cyclopropyl-1H-pyrrolo[2,3-b]pyridin-5-yl)-2-(methylsulfonyl)phenyl)tetrahydropyrimidin-2(1H)-one] | 151 | 37.4 | 7.1
3 | CCc1c[nH]c2ncc(-c3cccc(N4CCNC4=O)c3)c(Cl)c12 [Compound 3] | 25.7 | 22.5 | 13.3
4 | Cc1sc(N2CCCNC2=O)nc1-c1cnc2[nH]cc(C3CC3)c2c1Cl [Compound 7, 1-(4-(4-chloro-3-cyclopropyl-1H-pyrrolo[2,3-b]pyridin-5-yl)-5-methylthiazol-2-yl)tetrahydropyrimidin-2(1H)-one] | 126 | 4.2 | 93.7
5 | CCN(C)C(=O)c1c[nH]c2ncc(-c3cccc(N4CCCNC4=O)c3)c(Cl)c12 [Compound 12, 4-Chloro-N-ethyl-N-methyl-5-(3-(2-oxotetrahydropyrimidin-1 (2H)-yl)phenyl)-1H-pyrrolo[2,3-b]pyridine-3-carboxamide] | > 1000 | > 990 | > 1000
6 | N#Cc1cc(-c2cnc3[nH]cc(C4CC4)c3c2Cl)cc(N2CCCNC2=O)c1 [Compound 13, 3-(4-chloro-3-cyclopropyl-1H-pyrrolo[2,3-b]pyridin-5-yl)-5-(2-oxotetrahydropyrimidin-1(2H)-yl)benzonitrile] | 827 | 93.6 | 78.9

Molecules with a lower IC50 [1], results first:

Row | IC50 [1] [nM] | IC50 [2] [nM] | IC50 [3] [nM] | SMILES
7 | 20.6 | 37.8 | 35.8 | CCc1c[nH]c2ncc(-c3cccc(-n4cn[nH]c4=O)c3)c(Cl)c12 [Compound 1, 4-(3-(4-chloro-3-ethyl-1H-pyrrolo[2,3-b]pyridin-5-yl)phenyl)-2,4-dihydro-3H-1,2,4-triazol-3-one]
8 | 18.9 | 2.2 | 3.1 | O=C1NCCCN1c1nc(-c2cnc3[nH]cc(C4CC4)c3c2Cl)cs1 [Compound 5]
9 | 18.2 | 23.7 | 53.6 | O=c1[nH]ncn1-c1cccc(-c2cnc3[nH]cc(C4CC4)c3c2Cl)c1 [Compound 2, 4-(3-(4-chloro-3-cyclopropyl-1H-pyrrolo[2,3-b]pyridin-5-yl)phenyl)-2,4-dihydro-3H-1,2,4-triazol-3-one]
10 | 15.7 | 22.3 | 34.3 | O=C1NC2(CCNC2)CN1c1cccc(-c2cnc3[nH]cc(C4CC4)c3c2Cl)c1 (stereo not drawn) [Compound 11, 3-(3-(4-chloro-3-cyclopropyl-1H-pyrrolo[2,3-b]pyridin-5-yl)phenyl)-1,3,7-triazaspiro[4.4]nonan-2-one]
11 | 14.4 | 11.6 | 27.4 | O=C1NC2(CCNC2)C(=O)N1c1cccc(-c2cnc3[nH]cc(C4CC4)c3c2Cl)c1 (stereo not drawn) [Compound 10, 3-(3-(4-chloro-3-cyclopropyl-1H-pyrrolo[2,3-b]pyridin-5-yl)phenyl)-1,3,7-triazaspiro[4.4]nonane-2,4-dione]
12 | 14.3 | 6.1 | 9.5 | O=C1NCCN1c1cccc(-c2cnc3[nH]cc(C4CC4)c3c2Cl)n1 [Compound 6, 1-(6-(4-chloro-3-cyclopropyl-1H-pyrrolo[2,3-b]pyridin-5-yl)pyridin-2-yl) imidazolidin-2-one]
13 | 2.4 | 6 | 7.8 | O=C1NCCCN1c1cccc(-c2cnc3[nH]cc(C4CC4)c3c2Cl)n1 [Compound 8, 1-(6-(4-chloro-3-cyclopropyl-1H-pyrrolo[2,3-b]pyridin-5-yl)pyridin-2-yl)tetrahydropyrimidin-2(1H)-one]
14 | 2 | 0.8 | 172 | CCc1c[nH]c2ncc(-c3cccc(N4CCCNC4=O)c3)c(Cl)c12 [Compound 9]
